Reference: article PMC4740573 (Clinical Drug Investigation, 2015)

Tests used:
[1] = Plasma pharmacokinetics in healthy subjects; conditions: for T max: median (minimum, maximum); for AUC: AUCτ, 24 h dosing interval; for Cmax: C max, healthy subjects
thrombin generation = assay: Technothrombin thrombin generation assay; assay type: in vivo, human; conditions: for Endogenous thrombin potential A max / Endogenous thrombin potential A min / Lag time A max / Lag time A min / Peak thrombin A max / Peak thrombin A min / Time to peak A max / Time to peak A min / Velocity A max / Velocity A min: mean ± SD
[2] = system: activated partial thromboplastin time; assay: Activated partial thromboplastin time; assay type: in vivo, human; conditions: for LS mean aPTT at 2 h after dosing: ANCOVA; for Activated partial thromboplastin time A max / Activated partial thromboplastin time A min / Activated partial thromboplastin time AUEτ: mean ± SD; for Activated partial thromboplastin time T max: median (minimum, maximum)
[3] = cited from earlier work
Safety assessment = assay type: in vivo, human; conditions: healthy adult subjects
[4] = edoxaban after switching from dabigatran etexilate, day 4 (treatment 3)
[5] = edoxaban after switching from rivaroxaban, day 4 (treatment 2)
[6] = edoxaban alone, day 1 (treatment 1)
[7] = edoxaban alone, day 4 (treatment 1)
[8] = day 4, edoxaban after switching from dabigatran etexilate (treatment 3)
[9] = day 4, edoxaban after switching from rivaroxaban (treatment 2)
[10] = day 4, edoxaban alone (treatment 1)

Which T max ([1]; edoxaban day 4 after switching from dabigatran etexilate (treatment 3)) does the source give for `CN1CCc2nc(C(=O)N[C@@H]3C[C@@H](C(=O)N(C)C)CC[C@@H]3NC(=O)C(=O)Nc3ccc(Cl)cn3)sc2C1` [Edoxaban, edoxaban] here?
The T max was 1.00 (0.50, 3.00) h.

What about the T max ([1]; edoxaban day 4 after switching from rivaroxaban (treatment 2)) of the same compound?
The T max was 1.00 (0.50, 2.00) h.

And the Tmax ([1]; human, in vivo, 60 mg)?
The Tmax was 1 h.

What about the AUC ([1]; human, in vivo, 60 mg, edoxaban alone, day 1 (treatment 1), mean ± SD) of the same compound?
The AUC was 1780 ± 319 ng·h/mL.

What about the AUC ([1]; human, in vivo, 60 mg, edoxaban alone, day 4 (treatment 1), mean ± SD) of the same compound?
The AUC was 1990 ± 403 ng·h/mL.

And the AUC ([1]; human, in vivo, 60 mg, edoxaban day 4 after switching from dabigatran etexilate (treatment 3), mean ± SD)?
Its AUC is 1680 ± 475 ng·h/mL.

What about the AUC ([1]; human, in vivo, 60 mg, edoxaban day 4 after switching from rivaroxaban (treatment 2), mean ± SD) of the same compound?
Its AUC is 1740 ± 353 ng·h/mL.

What about the Cmax ([1]; human, in vivo, 60 mg, edoxaban 60 mg on day 4 after switching from dabigatran etexilate 150 mg twice daily for 3 days (treatment 3), mean ± SD) of the same compound?
The Cmax was 280 ± 124 ng/mL.

And the Cmax ([1]; human, in vivo, 60 mg, edoxaban 60 mg on day 4 after switching from rivaroxaban 20 mg once daily for 3 days (treatment 2), mean ± SD)?
Its Cmax is 288 ± 113 ng/mL.

What about the Cmax ([1]; human, in vivo, 60 mg, edoxaban 60 mg once daily alone, day 1 (treatment 1), mean ± SD) of the same compound?
The Cmax was 309 ± 97.2 ng/mL.

What about the Cmax ([1]; human, in vivo, 60 mg, edoxaban 60 mg once daily alone, day 4 (treatment 1), mean ± SD) of the same compound?
Its Cmax is 303 ± 87.7 ng/mL.

And the concentration at 1 day ([1]; human, in vivo, 60 mg, C trough, edoxaban alone, day 1 (treatment 1), mean ± SD)?
Its concentration at 1 day is 14 ± 5.44 ng/mL.

What about the concentration at 4 day ([1]; human, in vivo, 60 mg, C trough, edoxaban alone, day 4 (treatment 1), mean ± SD) of the same compound?
Its concentration at 4 day is 15.5 ± 3.98 ng/mL.

What about the concentration at 4 day ([1]; human, in vivo, 60 mg, C trough, edoxaban day 4 after switching from dabigatran etexilate (treatment 3), mean ± SD) of the same compound?
Its concentration at 4 day is 12.8 ± 4.13 ng/mL.

And the concentration at 4 day ([1]; human, in vivo, 60 mg, C trough, edoxaban day 4 after switching from rivaroxaban (treatment 2), mean ± SD)?
The concentration at 4 day was 13.4 ± 5 ng/mL.

And the “ETP Amax” value (thrombin generation; day 4, continual edoxaban treatment (treatment 1))?
The value was 3644 ± 434 mN·min.

And the “Endogenous thrombin potential A max” value (thrombin generation; [4])?
Its value is 3338 ± 575 nM·min.

And the “Endogenous thrombin potential A min” value (thrombin generation; [4])?
Its value is 1239 ± 828 nM·min.

And the “Lag time A max” value (thrombin generation; [4])?
The value was 55.3 ± 16.2 min.

What about the “Lag time A min” value (thrombin generation; [4]) of the same compound?
Its value is 20.5 ± 3.60 min.

What about the “Peak thrombin A max” value (thrombin generation; [4]) of the same compound?
The value was 302 ± 77.0 nM.

And the “Peak thrombin A min” value (thrombin generation; [4])?
The value was 48.9 ± 25.2 nM.

What about the “Time to peak A max” value (thrombin generation; [4]) of the same compound?
Its value is 74.0 ± 12.4 min.

And the “Time to peak A min” value (thrombin generation; [4])?
The value was 27.5 ± 7.94 min.

And the “Velocity A max” value (thrombin generation; [4])?
The value was 46.5 ± 25.7 nM/min.

What about the “Velocity A min” value (thrombin generation; [4]) of the same compound?
Its value is 2.13 ± 1.35 nM/min.

And the “Endogenous thrombin potential A max” value (thrombin generation; [5])?
Its value is 3680 ± 462 nM·min.

What about the “Endogenous thrombin potential A min” value (thrombin generation; [5]) of the same compound?
The value was 1506 ± 798 nM·min.

What about the “Lag time A max” value (thrombin generation; [5]) of the same compound?
The value was 39.9 ± 9.96 min.

And the “Lag time A min” value (thrombin generation; [5])?
The value was 15.8 ± 3.54 min.

And the “Peak thrombin A max” value (thrombin generation; [5])?
The value was 324 ± 123 nM.

What about the “Peak thrombin A min” value (thrombin generation; [5]) of the same compound?
Its value is 49.2 ± 31.9 nM.

And the “Time to peak A max” value (thrombin generation; [5])?
Its value is 59.4 ± 14.6 min.

And the “Time to peak A min” value (thrombin generation; [5])?
The value was 22.0 ± 5.15 min.

And the “Velocity A max” value (thrombin generation; [5])?
Its value is 67.4 ± 46.6 nM/min.

And the “Velocity A min” value (thrombin generation; [5])?
Its value is 3.04 ± 2.88 nM/min.

What about the “Endogenous thrombin potential A max” value (thrombin generation; [6]) of the same compound?
The value was 3635 ± 432 nM·min.

What about the “Endogenous thrombin potential A min” value (thrombin generation; [6]) of the same compound?
The value was 1520 ± 754 nM·min.

And the “Lag time A max” value (thrombin generation; [6])?
The value was 38.3 ± 8.59 min.

And the “Lag time A min” value (thrombin generation; [6])?
The value was 15.8 ± 2.25 min.

And the “Peak thrombin A max” value (thrombin generation; [6])?
Its value is 323 ± 98.1 nM.

What about the “Peak thrombin A min” value (thrombin generation; [6]) of the same compound?
Its value is 45.7 ± 25.5 nM.

What about the “Time to peak A max” value (thrombin generation; [6]) of the same compound?
Its value is 58.6 ± 12.6 min.

And the “Time to peak A min” value (thrombin generation; [6])?
The value was 22.2 ± 4.13 min.

And the “Velocity A max” value (thrombin generation; [6])?
The value was 61.4 ± 31.3 nM/min.

And the “Velocity A min” value (thrombin generation; [6])?
Its value is 2.62 ± 1.92 nM/min.

And the “Endogenous thrombin potential A max” value (thrombin generation; [7])?
The value was 3644 ± 434 nM·min.

And the “Endogenous thrombin potential A min” value (thrombin generation; [7])?
The value was 1474 ± 755 nM·min.

And the “Lag time A max” value (thrombin generation; [7])?
The value was 37.8 ± 7.09 min.

And the “Lag time A min” value (thrombin generation; [7])?
Its value is 16.9 ± 2.41 min.

What about the “Peak thrombin A max” value (thrombin generation; [7]) of the same compound?
The value was 315 ± 90.6 nM.

And the “Peak thrombin A min” value (thrombin generation; [7])?
The value was 43.4 ± 25.1 nM.

And the “Time to peak A max” value (thrombin generation; [7])?
The value was 58.5 ± 12.2 min.

What about the “Time to peak A min” value (thrombin generation; [7]) of the same compound?
Its value is 23.7 ± 4.29 min.

What about the “Velocity A max” value (thrombin generation; [7]) of the same compound?
Its value is 58.4 ± 31.9 nM/min.

What about the “Velocity A min” value (thrombin generation; [7]) of the same compound?
Its value is 2.40 ± 1.89 nM/min.

And the “LS mean aPTT at 2 h after dosing” value ([2]; day 4, after switching from dabigatran etexilate to edoxaban (treatment 3))?
Its value is 47.6 s.

And the “Activated partial thromboplastin time A max” value [2, 8]?
The value was 50.8 ± 8.92 s.

And the “Activated partial thromboplastin time A min” value [2, 8]?
Its value is 30.0 ± 2.20 s.

What about the “Activated partial thromboplastin time AUEτ” value [2, 8] of the same compound?
The value was 863 ± 87.3 s·h.

And the “Activated partial thromboplastin time T max” value [2, 8]?
The value was 1.00 (0.50, 3.00) h.

What about the “Activated partial thromboplastin time A max” value [2, 9] of the same compound?
Its value is 36.5 ± 3.94 s.

And the “Activated partial thromboplastin time A min” value [2, 9]?
Its value is 28.4 ± 2.13 s.

What about the “Activated partial thromboplastin time AUEτ” value [2, 9] of the same compound?
The value was 738 ± 58.6 s·h.

And the “Activated partial thromboplastin time T max” value [2, 9]?
The value was 1.00 (0.50, 4.00) h.

What about the “LS mean aPTT at 2 h after dosing” value [2, 10] of the same compound?
Its value is 35.0 s.

And the “Activated partial thromboplastin time A max” value [2, 10]?
Its value is 35.9 ± 3.15 s.

What about the “Activated partial thromboplastin time A min” value [2, 10] of the same compound?
The value was 27.7 ± 1.70 s.

And the “Activated partial thromboplastin time AUEτ” value [2, 10]?
Its value is 725 ± 48.8 s·h.

What about the “Activated partial thromboplastin time T max” value [2, 10] of the same compound?
Its value is 1.50 (0.50, 4.00) h.

What about the “time to peak effect on aPTT” value ([2]; edoxaban alone (treatment 1), return to baseline by 24 h) of the same compound?
Its value is 1 to 2 h.

What about the oral bioavailability [3] of the same compound?
Its oral bioavailability is “approximately 62%”.

And the terminal elimination half-life [3]?
The terminal elimination half-life was 10 to 14 h.

And the “time to peak plasma concentration and peak antithrombotic effect” value ([3]; oral)?
Its value is 1 to 2 h.

What about the tolerability (Safety assessment) of the same compound?
The tolerability was “well tolerated”.

For `CCCCCCOC(=O)NC(=N)c1ccc(NCc2nc3cc(C(=O)N(CCC(=O)OCC)c4ccccn4)ccc3n2C)cc1` [dabigatran etexilate], which tolerability (Safety assessment) is on record?
The tolerability was “well tolerated”.

With `O=C(NC[C@H]1CN(c2ccc(N3CCOCC3=O)cc2)C(=O)O1)c1ccc(Cl)s1` [rivaroxaban] as the compound, how does the tolerability (Safety assessment) read?
The tolerability was “well tolerated”.
